Test results: PMC11140455 (RSC Advances, 2024)
“And” between values parts separate entries of the source, which are not always exact repeats. Equal entries are not always repeated. Where two headings read alike, the source gives them in different places.

How the values were obtained:
[1] = system: BaF3/NMP-ALK cancer cell line; assay: Antiproliferative activity, CCK-8 assay, BaF3/ALK cells; assay type: cell-based, mouse; settings: read-out: BaF3/NMP-ALK IC50
[2] = system: H2228 EML4-ALK cancer cell line; assay: Antiproliferative activity, MTT assay, H2228 monolayer; assay type: cell-based, human; settings: read-out: H2228 IC50 EML4-ALK
[3] = system: H2228 xenograft; assay: In vivo anti-tumor evaluation, H2228 xenograft in nude mice; settings: 20 mg kg^-1, oral, 14 days
[4] = system: L02 cells; assay: Toxicity assay on human normal cells, L02; assay type: cell-based; settings: L02, read-out: IC50 L02
[5] = system: EA.hy926 cells; assay: Toxicity assay on human normal cells, EA.hy926; assay type: cell-based; settings: for IC50: Homo sapiens
[6] = system: HK-2 cells; assay: Toxicity assay on human normal cells, HK-2; assay type: cell-based
[7] = CCK-8, 48 h, at least three experiments
[8] = MTT, 48 h, mean ± SD, at least three experiments

Compound | IC50 [1, 7] | IC50 [2, 8] | further results
4-Chloro-N2-(2-ethoxy-5-methyl-4-(1-methylpiperidin-4-yl)phenyl)-N5-(2-(ethylsulfinyl)-4-fluorophenyl)pyrimidine-2,5-diamine [Compound 18g] | 0.029 ± 0.012 µM | 0.033 ± 0.007 µM | 
4-Chloro-N5-(2-(ethylsulfinyl)-4-fluorophenyl)-N2-(2-isopropoxy-5-methyl-4-(1-methylpiperidin-4-yl)phenyl)pyrimidine-2,5-diamine [Compound 18L] | 0.028 ± 0.008 µM | 0.031 ± 0.01 µM | 
4-Chloro-N5-(2-(ethylsulfinyl)-4-fluorophenyl)-N2-(2-isopropoxy-5-methyl-4-(piperidin-4-yl)phenyl)pyrimidine-2,5-diamine [Compound 18j] | 0.056 ± 0.004 µM | 0.063 ± 0.008 µM | 
4-Chloro-N5-(2-(ethylsulfinyl)-4-fluorophenyl)-N2-(2-methoxy-5-methyl-4-(1-methylpiperidin-4-yl)phenyl)pyrimidine-2,5-diamine [Compound 18f] | 0.031 ± 0.013 µM | 0.037 ± 0.011 µM | 
4-Chloro-N5-(2-(ethylsulfinyl)-4-fluorophenyl)-N2-(2-methoxy-5-methyl-4-(piperidin-4-yl)phenyl)pyrimidine-2,5-diamine [Compound 18h] | 0.047 ± 0.015 µM | 0.058 ± 0.016 µM | 
4-Chloro-N5-(2-(ethylsulfinyl)phenyl)-N2-(2-methoxy-4-(1-methylpiperidin-4-yl)phenyl)pyrimidine-2,5-diamine [Compound 18k] | 0.024 ± 0.005 µM | 0.057 ± 0.006 µM | 
4-Chloro-N5-(2-(ethylsulfinyl)phenyl)-N2-(2-methoxy-5-methyl-4-(1-methylpiperidin-4-yl)phenyl)pyrimidine-2,5-diamine [Compound 18e] | 0.033 ± 0.01 µM | 0.044 ± 0.012 µM | 
4-Chloro-N5-(4-chloro-2-(ethylsulfinyl)phenyl)-N2-(2-isopropoxy-5-methyl-4-(1-methylpiperidin-4-yl)phenyl)pyrimidine-2,5-diamine [Compound 18i] | 0.077 ± 0.015 µM | 0.081 ± 0.028 µM | 
Cc1cc(Nc2ncc(Cl)c(Nc3ccccc3S(=O)(=O)C(C)C)n2)c(OC(C)C)cc1C1CCNCC1 [Ceritinib, ceritinib] |  |  | Tumor growth inhibitory rate (TGI) [3]: 72.8% and 72.0%; Tumor volume changes (inhibitory effects) [3]: 131.00 mm^3; IC50 [4]: 3.42 ± 0.56 µM; IC50 ([1]; Mus musculus, BaF3, 48 h): 0.018 ± 0.001 µM; EA.hy926 cell morphology ([5]; 48 h, 1 μM (Fig. 9)): abnormal morphology changes; IC50 ([5]; EA.hy 926, read-out: IC50 EA.hy926 (active)): 3.42 ± 0.56 µM; IC50 ([5]; EA.hy 926, read-out: IC50 EA.hy926 (quiescent)): 2.44 ± 0.34 µM; IC50 ([2]; Homo sapiens, NCI-H2228, 48 h): 0.025 ± 0.01 µM; HK-2 cell morphology ([6]; 48 h, 1 μM (Fig. 9)): abnormal morphology changes; IC50 ([6]; Homo sapiens, HK-2, read-out: IC50 HK-2): 1.44 ± 0.25 µM
